Where a name gives a salt, the structure may show the parent alone.
Tests used:
db/db mice = assay: Measuring blood plasma glucose concentration in db/db mice (hypoglycemic effect); type: in vivo; design: key: ++: compounds exhibiting statistically significant hypoglycemic effect at a dose of 10 mg/kg or less; +: compounds exhibiting not significant but obvious hypoglycemic effect at a dose of 10 mg/kg; conditions: db/db mice fasted 4 h, oral administration, plasma glucose 1 and 3 hours after administration, dose 10 mg/kg or less, Dunnett test vs solvent
Procedure: 2. Exemplary Test (2) Method for Measuring Blood Plasma Glucose Concentration
Using db/db mice representing an obesity type of diabetic model were used to examine the effect of compound (1) of the present invention on glucose concentrations in plasma. Plasma glucose concentrations of the db/db mice (9-18 weeks old) were measured, and the mice were divided into groups each of 5 or 8 mice such that there would be no difference in the average value of plasma glucose concentrations. After fasting for four hours, the example compound or the solvent (0.5% methylcellulose) was administered orally to the db/db mice, and plasma glucose concentrations were measured 1 and 3 hours after administration. The analysis of the hypoglycemic effect of the example compound was performed through a statistical test at every hour between the group receiving the solvent and the groups of example compound (Dunnett test).

[1] = target: T1, recombinant human liver glycogen phosphorylase (Homo sapiens, UniProt P06737); assay: Measuring liver glycogen phosphorylase activity (forward reaction system, NADPH absorbance at 340 nm); type: biochemical; conditions: enzyme inhibitory activity with respect to liver glycogen phosphorylase; class symbols
T1 construct: made in house; host or cells: Sf9 insect cells (crude homogenate, diluted, used as the enzyme solution)
T1 sequence (P06737 1-847): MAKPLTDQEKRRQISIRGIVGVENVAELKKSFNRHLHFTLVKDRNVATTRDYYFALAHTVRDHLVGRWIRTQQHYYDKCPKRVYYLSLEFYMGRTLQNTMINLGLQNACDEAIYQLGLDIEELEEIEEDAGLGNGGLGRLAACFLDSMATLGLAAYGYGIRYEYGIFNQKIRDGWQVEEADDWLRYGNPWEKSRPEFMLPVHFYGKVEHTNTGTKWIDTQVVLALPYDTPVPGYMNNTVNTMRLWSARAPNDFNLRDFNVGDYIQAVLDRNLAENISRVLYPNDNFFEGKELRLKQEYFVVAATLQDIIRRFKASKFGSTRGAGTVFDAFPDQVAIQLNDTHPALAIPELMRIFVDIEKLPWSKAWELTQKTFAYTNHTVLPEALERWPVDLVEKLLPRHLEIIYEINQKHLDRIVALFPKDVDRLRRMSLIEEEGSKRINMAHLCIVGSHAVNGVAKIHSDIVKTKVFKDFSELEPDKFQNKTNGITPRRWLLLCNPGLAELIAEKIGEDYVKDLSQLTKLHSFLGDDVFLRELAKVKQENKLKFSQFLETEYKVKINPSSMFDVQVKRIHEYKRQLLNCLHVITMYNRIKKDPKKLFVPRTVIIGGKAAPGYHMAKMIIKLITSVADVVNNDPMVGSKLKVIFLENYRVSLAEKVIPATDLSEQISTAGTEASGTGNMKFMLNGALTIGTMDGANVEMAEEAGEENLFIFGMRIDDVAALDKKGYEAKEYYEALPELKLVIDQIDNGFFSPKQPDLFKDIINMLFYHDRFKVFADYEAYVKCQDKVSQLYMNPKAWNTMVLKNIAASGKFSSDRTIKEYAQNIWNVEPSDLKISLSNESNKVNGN
Outline: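 Sf9 homogenate expressing the enzyme, in pH 6.8 BES/EDTA, with glycogen and phosphate substrate plus glucose, coupled via phosphoglucomutase/G6PDH to NADPH formation. A340 change over 75 min at room temperature, blank-corrected; IC50 linearly interpolated between the two concentrations bracketing 50% inhibition versus 1% DMSO control.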

| SMILES | IC50 [1] [nM] | vivo (hypoglycemic effect in db/db mice) (db/db mice) | vivo (hypoglycemic effect in db/db mice) (db/db mice; 10 mg/kg) |
| --- | --- | --- | --- |
| COc1ccc(CNC(=O)c2cc(NC(=O)c3cc(F)c(F)cc3Cl)[nH]n2)cc1 [Example 1-68] | < 100 | + |  |
| Cc1ccc(CNC(=O)c2cc(NC(=O)c3cc(F)c(F)cc3Cl)[nH]n2)cc1 [Example 1-69] | < 100 | + |  |
| O=C(NCc1ccc(F)cc1)c1cc(NC(=O)c2cc(F)c(F)cc2Cl)[nH]n1 [Example 1-70] | < 100 | ++ |  |
| O=C(NCc1ccc(Cl)cc1)c1cc(NC(=O)c2cc(F)c(F)cc2Cl)[nH]n1 [Example 1-71] | < 100 | + |  |
| COC(=O)c1ccc(CNC(=O)c2cc(NC(=O)c3cc(F)c(F)cc3Cl)[nH]n2)cc1 [Example 1-72] | < 100 | + |  |
| O=C(O)c1ccc(CNC(=O)c2cc(NC(=O)c3cc(F)c(F)cc3Cl)[nH]n2)cc1 [Example 1-73] | < 100 | + |  |
| CN(C(=O)c1cc(NC(=O)c2cc(F)c(F)cc2Cl)[nH]n1)C1CCCCC1 [Example 1-78] | < 100 | + |  |
| CCN(C(=O)c1cc(NC(=O)c2cc(F)c(F)cc2Cl)[nH]n1)C1CCCCC1 [Example 1-80] | < 100 | + |  |
| C=CCN(C(=O)c1cc(NC(=O)c2cc(F)c(F)cc2Cl)[nH]n1)C1CCCCC1 [Example 1-81] | < 100 | + |  |
| O=C(Nc1cc(C(=O)N(Cc2ccccn2)C2CCCCC2)n[nH]1)c1cc(F)c(F)cc1Cl [Example 1-82] | < 100 | + |  |
| Cl.O=C(NCc1ccc2c(c1)OCO2)c1cc(NC(=O)c2cc(F)c(F)cc2Cl)[nH]n1 [Example 1-84] | < 100 | ++ |  |
| CCCCN(CC)C(=O)c1cc(NC(=O)c2cc(F)c(F)cc2Cl)[nH]n1 [Example 1-87] | < 100 | + |  |
| CCCN(C(=O)c1cc(NC(=O)c2cc(F)c(F)cc2Cl)[nH]n1)C1CCCCC1 [Example 1-88] | < 100 | + |  |
| CS(=O)(=O)O.Cc1noc(C)c1CNC(=O)c1cc(NC(=O)c2cc(F)c(F)cc2Cl)[nH]n1 [Example 5-10] |  | + |  |
| COc1cncc(OC)c1CNC(=O)c1cc(NC(=O)c2cc(F)c(F)cc2Cl)[nH]n1 [Example 5-17] |  | + |  |
| Cl.O=C(NCc1ccc(-c2csnn2)cc1)c1cc(NC(=O)c2cc(F)c(F)cc2Cl)[nH]n1 [Example 5-31] |  | + |  |
| O=C(NCc1cnccn1)c1cc(NC(=O)c2cc(F)c(F)cc2Cl)[nH]n1 [Example 5-42] |  | + |  |
| O=C(NCc1ccc(N2CCSCC2)nc1)c1cc(NC(=O)c2cc(F)c(F)cc2Cl)[nH]n1 [Example 5-43] |  | + |  |
| O=C(NCc1ccc(N2CCS(=O)(=O)CC2)nc1)c1cc(NC(=O)c2cc(F)c(F)cc2Cl)[nH]n1 [Example 5-44] |  | + |  |

Continued, in another order:

| IC50 [1] [nM] | SMILES | vivo (hypoglycemic effect in db/db mice) (db/db mice) | vivo (hypoglycemic effect in db/db mice) (db/db mice; 10 mg/kg) |
| --- | --- | --- | --- |
| < 100 | Cc1ncoc1CNC(=O)c1cc(NC(=O)c2cc(F)c(F)cc2Cl)[nH]n1 [Example 1-2, 5-(2-chloro-4,5-difluoro-benzoylamino)-1H-pyrazole-3-carboxylic acid (4-methyl-oxazol-5-ylmethyl)-amide] | ++ |  |
| < 100 | Cc1ccnc(C)c1CNC(=O)c1cc(NC(=O)c2cc(F)c(F)cc2Cl)[nH]n1 [Example 1-3-1, 5-(2-chloro-4,5-difluoro-benzoylamino)-1H-pyrazole-3-carboxylic acid (2,4-dimethyl-pyridin-3-ylmethyl)-amide dihydrochloride] | ++ |  |
| < 100 | COc1ccc(CNC(=O)c2cc(NC(=O)c3cc(F)c(F)cc3Cl)[nH]n2)cn1 [Example 1-12] |  | ++ |
| < 100 | COc1cccc(OC)c1CNC(=O)c1cc(NC(=O)c2cc(F)c(F)cc2Cl)[nH]n1 [Example 1-15] | + |  |
| < 100 | O=C(NCc1cccc(F)c1F)c1cc(NC(=O)c2cc(F)c(F)cc2Cl)[nH]n1 [Example 1-18] | + |  |
| < 100 | O=C(NCc1ccc(F)cc1F)c1cc(NC(=O)c2cc(F)c(F)cc2Cl)[nH]n1 [Example 1-19] | + |  |
| < 100 | O=C(NCc1c(F)cccc1F)c1cc(NC(=O)c2cc(F)c(F)cc2Cl)[nH]n1 [Example 1-21] | + |  |
| < 100 | CC(C)Oc1ncccc1CNC(=O)c1cc(NC(=O)c2cc(F)c(F)cc2Cl)[nH]n1 [Example 1-24] | + |  |
| < 100 | O=C(NCc1cccnc1Oc1ccccc1)c1cc(NC(=O)c2cc(F)c(F)cc2Cl)[nH]n1 [Example 1-25] | + |  |
| < 100 | O=C(NCc1ncc(F)cc1F)c1cc(NC(=O)c2cc(F)c(F)cc2Cl)[nH]n1 [Example 1-26] | + |  |
| < 100 | CC(C)Oc1ccc(CNC(=O)c2cc(NC(=O)c3cc(F)c(F)cc3Cl)[nH]n2)cn1 [Example 1-31] | + |  |
| < 100 | CCOc1ccc(CNC(=O)c2cc(NC(=O)c3cc(F)c(F)cc3Cl)[nH]n2)cn1 [Example 1-37] | + |  |
| < 100 | O=C(NCc1cscn1)c1cc(NC(=O)c2cc(F)c(F)cc2Cl)[nH]n1 [Example 1-38] | + |  |
| < 100 | O=C(NCc1ccc(OCC(F)(F)F)nc1)c1cc(NC(=O)c2cc(F)c(F)cc2Cl)[nH]n1 [Example 1-39] | + |  |
| < 100 | Cc1cccc(C)c1CNC(=O)c1cc(NC(=O)c2cc(F)c(F)cc2Cl)[nH]n1 [Example 1-40] | + |  |
| < 100 | O=C(NCc1csc(-c2cccnc2)n1)c1cc(NC(=O)c2cc(F)c(F)cc2Cl)[nH]n1 [Example 1-41] | + |  |
| < 100 | O=C(NCc1nc2ccccc2[nH]1)c1cc(NC(=O)c2cc(F)c(F)cc2Cl)[nH]n1 [Example 1-42] | + |  |
| < 100 | Cc1noc(C)c1CNC(=O)c1cc(NC(=O)c2cc(F)c(F)cc2Cl)[nH]n1 [Example 1-46] | ++ |  |
| < 100 | Cl.Cn1c(CNC(=O)c2cc(NC(=O)c3cc(F)c(F)cc3Cl)[nH]n2)nc2ccccc21 [Example 1-50] | + |  |
| < 100 | O=C(NCc1nc2ccccc2s1)c1cc(NC(=O)c2cc(F)c(F)cc2Cl)[nH]n1 [Example 1-52] | + |  |
| < 100 | Cc1ccc(CNC(=O)c2cc(NC(=O)c3cc(F)c(F)cc3Cl)[nH]n2)c(Cl)n1 [Example 1-56] | + |  |
| < 100 | COc1ccnc(CNC(=O)c2cc(NC(=O)c3cc(F)c(F)cc3Cl)[nH]n2)c1OC [Example 1-59] | ++ |  |
| < 100 | Cc1nc(N2CCOCC2)sc1CNC(=O)c1cc(NC(=O)c2cc(F)c(F)cc2Cl)[nH]n1 [Example 1-63] | + |  |
| < 100 | COc1ccccc1CNC(=O)c1cc(NC(=O)c2cc(F)c(F)cc2Cl)[nH]n1 [Example 1-66] | + |  |
| < 100 | COc1cccc(CNC(=O)c2cc(NC(=O)c3cc(F)c(F)cc3Cl)[nH]n2)c1 [Example 1-67] | + |  |
